According to patent publication US20030109523A1, “Bicyclic antagonists selective for the alphavbeta3 integrin” (Wyeth, priority 1999, published 2003):
Where a name gives a salt, the structure may show the parent alone. Read-outs that look alike come from different tables or passages of the source.

Assays:
[1] = molecular target: T1, αIIbβ3 integrin (Homo sapiens, UniProt P05106+P08514); experiment: ADP-Induced Platelet Aggregation; assay type: cell-based; conditions: Table VII; for IC50: ADP 20 uM, human platelets, read-out: Platelet Aggregation αIIbβ3 IC50
T1 construct: Human Platelets: Platelet-enriched plasma was obtained commercially from a donor pool; from tissue; host or cells: human platelet-rich plasma from a commercial donor pool
T1 sequence (P08514 32-887 limits assumed): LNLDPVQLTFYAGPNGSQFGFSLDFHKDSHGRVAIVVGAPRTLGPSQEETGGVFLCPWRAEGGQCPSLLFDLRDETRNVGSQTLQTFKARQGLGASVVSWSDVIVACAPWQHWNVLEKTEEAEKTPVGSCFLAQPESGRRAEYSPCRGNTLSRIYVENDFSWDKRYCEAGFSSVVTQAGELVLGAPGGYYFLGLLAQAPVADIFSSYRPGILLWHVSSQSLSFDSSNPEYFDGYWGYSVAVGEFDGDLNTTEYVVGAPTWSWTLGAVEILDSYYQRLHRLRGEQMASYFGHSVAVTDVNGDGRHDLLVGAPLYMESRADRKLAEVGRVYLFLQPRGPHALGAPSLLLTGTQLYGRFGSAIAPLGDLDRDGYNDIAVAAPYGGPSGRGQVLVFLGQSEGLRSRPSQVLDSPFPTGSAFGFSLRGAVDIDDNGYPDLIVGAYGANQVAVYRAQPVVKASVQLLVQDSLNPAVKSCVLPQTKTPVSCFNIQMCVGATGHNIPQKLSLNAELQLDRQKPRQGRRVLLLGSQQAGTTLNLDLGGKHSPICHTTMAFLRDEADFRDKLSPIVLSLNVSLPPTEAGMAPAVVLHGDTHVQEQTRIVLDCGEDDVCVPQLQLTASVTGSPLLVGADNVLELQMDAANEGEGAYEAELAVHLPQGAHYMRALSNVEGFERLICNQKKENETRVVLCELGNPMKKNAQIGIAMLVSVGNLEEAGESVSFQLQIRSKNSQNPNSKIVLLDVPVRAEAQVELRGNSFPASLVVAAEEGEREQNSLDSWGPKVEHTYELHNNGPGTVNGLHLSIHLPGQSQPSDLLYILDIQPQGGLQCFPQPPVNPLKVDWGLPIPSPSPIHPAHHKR
T1 sequence (P08514 891-1039 partner limits assumed): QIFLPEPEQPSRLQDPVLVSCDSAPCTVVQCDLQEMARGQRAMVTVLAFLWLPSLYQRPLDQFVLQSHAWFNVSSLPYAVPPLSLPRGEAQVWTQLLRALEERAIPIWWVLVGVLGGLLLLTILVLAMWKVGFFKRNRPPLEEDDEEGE
T1 sequence (P05106 27-788): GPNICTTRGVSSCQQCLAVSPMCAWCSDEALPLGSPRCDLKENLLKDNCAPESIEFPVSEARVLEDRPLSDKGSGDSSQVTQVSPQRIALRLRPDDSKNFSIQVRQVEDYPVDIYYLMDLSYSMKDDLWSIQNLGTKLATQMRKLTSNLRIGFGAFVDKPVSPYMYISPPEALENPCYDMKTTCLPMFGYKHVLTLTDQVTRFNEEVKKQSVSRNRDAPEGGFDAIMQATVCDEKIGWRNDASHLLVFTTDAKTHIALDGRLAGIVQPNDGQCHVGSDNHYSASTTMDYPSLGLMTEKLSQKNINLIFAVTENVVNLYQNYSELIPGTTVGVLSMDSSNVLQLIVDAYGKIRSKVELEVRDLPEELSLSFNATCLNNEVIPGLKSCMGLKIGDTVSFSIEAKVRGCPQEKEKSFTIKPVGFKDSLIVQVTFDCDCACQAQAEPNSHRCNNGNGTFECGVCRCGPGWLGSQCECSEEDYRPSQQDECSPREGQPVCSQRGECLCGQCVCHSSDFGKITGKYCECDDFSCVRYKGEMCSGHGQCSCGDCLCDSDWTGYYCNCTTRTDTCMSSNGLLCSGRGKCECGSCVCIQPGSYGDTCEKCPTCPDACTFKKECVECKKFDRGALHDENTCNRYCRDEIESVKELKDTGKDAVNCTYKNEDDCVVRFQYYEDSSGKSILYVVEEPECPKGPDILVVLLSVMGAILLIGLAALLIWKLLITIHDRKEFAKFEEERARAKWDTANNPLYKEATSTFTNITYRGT
Experimental: Measurement of the Effect of Compounds on ADP-Induced Platelet Aggregation
Measuring the effect of compounds on ADP-induced platelet aggregation mediated by a fibrinogen-αIIbβ3 integrin interaction.
Human Platelets: Platelet-enriched plasma was obtained commercially from a donor pool. The plasma was tested prior to shipment and found to be negative for HIV, HCV and Hepatitis B. Platelet-rich plasma (PRP) was obtained by diluting plasma to an approximate final concentration of 3×10(6) platelets per mL in platelet poor plasma (PPP). PPP was the supernatant of a lowspeed centrifugation of plasma.
Adenosine diphosphate (ADP): ADP was obtained commercially and diluted to 1 mM (stock solution) in distilled, deionized water (ddH2O).
Incubation: PRP and PPP were prewarmed in a water bath at 37° C. […] PRP plus sample compound in a final volume of 500 uL was added to a pre-warmed cuvette in a ChronoLog aggregometer. A control containing PRP and 5 uL of vehicle was treated similarly to the test cuvette; final vehicle concentration was 1%. The two cuvettes were incubated with stirring (1000 rpm) at 37° C. for 5 minutes. Five hundred microliters of PPP was used as a reference (100% aggregation).
Aggregation: To begin the test, ADP was added yielding a final concentration of 20 uM to both samples (plus and minus sample compound). Light transmittance was monitored continuously and compared to the reference cuvette. After five minutes, the test was terminated and the slope and maximal amplitude of the resulting aggregation plot was calculated by the aggregometer.
The percent of maximal aggregation is the ratio of the maximal aggregations of the sample cuvette to the control multiplied by 100 (% Max) and reported as the mean+−standard deviation.

[2] = tested on: osteoclasts; experiment: Osteoclast Bone Pitting; assay type: cell-based, rat
Experimental: Osteoclast Bone Pitting The test procedure was conducted as described by R. J. Murrills and D. W. […] At this pH the adherent osteoclasts excavate an adequate number of resorption pits for assay purposes. Slices were fixed in 2.5% glutaraldehyde and osteoclasts counted following tartrate-resistant acid phosphatase staining. […] All cells were stripped from the slice by sonication on 0.25M NH4OH and the resorption pits formed by the osteoclasts during the experiment stained with toluidine blue. Resorption pits were quantified by manually counting. The experiments were conducted according to a block design with osteoclasts from each animal exposed to each treatment. Three replicate slices were used per treatment per animal, such that a total of 96 slices were examined for an experiment involving four animals and eight treatments (including control). Several parameters were recorded on a “per slice” basis: number of pits, number of osteoclasts, number of pits per osteoclast, number of fibroblast-like bone cells. SAS or JMP statistical software were used for statistical analysis. […] IC50s were calculated using dose-response curves.

[3] = molecular target: T2, αVβ3 integrin (Homo sapiens, UniProt P05106+P06756); experiment: Osteopontin-αVβ3 Cell Attachment Test Procedure; assay type: cell-based; conditions: for IC50: attachment of cells to osteopontin, read-out: (αVβ3) IC50 CELL ATTACHMENT
T2 construct: αVβ3-expressing cell lines are maintained by standard tissue culture techniques; endogenous in cells; host or cells: αVβ3-expressing cell lines
T2 sequence (P06756 31-889 limits assumed): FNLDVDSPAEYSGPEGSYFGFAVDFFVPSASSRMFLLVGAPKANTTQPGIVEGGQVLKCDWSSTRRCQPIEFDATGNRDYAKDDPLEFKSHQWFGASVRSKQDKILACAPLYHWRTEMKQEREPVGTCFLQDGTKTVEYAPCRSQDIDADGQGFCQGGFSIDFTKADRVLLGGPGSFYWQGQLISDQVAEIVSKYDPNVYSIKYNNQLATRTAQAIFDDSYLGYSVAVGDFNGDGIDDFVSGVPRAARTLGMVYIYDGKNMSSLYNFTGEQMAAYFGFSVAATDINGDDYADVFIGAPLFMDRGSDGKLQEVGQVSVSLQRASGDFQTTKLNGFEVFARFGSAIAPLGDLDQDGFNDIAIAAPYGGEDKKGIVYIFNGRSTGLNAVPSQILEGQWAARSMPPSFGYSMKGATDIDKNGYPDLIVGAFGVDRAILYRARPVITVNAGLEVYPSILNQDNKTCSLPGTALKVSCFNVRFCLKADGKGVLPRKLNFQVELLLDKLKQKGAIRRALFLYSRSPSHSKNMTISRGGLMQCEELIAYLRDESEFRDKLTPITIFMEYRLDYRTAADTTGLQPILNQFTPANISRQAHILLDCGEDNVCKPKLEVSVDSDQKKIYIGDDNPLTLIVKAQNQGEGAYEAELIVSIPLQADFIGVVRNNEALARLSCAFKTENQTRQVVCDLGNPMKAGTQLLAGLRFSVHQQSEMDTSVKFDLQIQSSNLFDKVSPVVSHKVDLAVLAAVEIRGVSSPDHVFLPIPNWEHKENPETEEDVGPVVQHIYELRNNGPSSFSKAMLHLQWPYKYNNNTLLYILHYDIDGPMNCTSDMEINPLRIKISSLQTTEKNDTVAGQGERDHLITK
T2 sequence (P06756 891-1048 partner limits assumed): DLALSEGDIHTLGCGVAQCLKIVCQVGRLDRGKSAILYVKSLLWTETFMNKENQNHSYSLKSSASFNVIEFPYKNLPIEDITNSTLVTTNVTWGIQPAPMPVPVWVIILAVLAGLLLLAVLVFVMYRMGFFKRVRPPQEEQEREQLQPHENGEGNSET
T2 sequence (P05106 27-788): as the sequence (P05106 27-788) above
Experimental: Osteopontin-αVβ3 Cell Attachment Test Procedure
Measuring the effect of compounds on the RGD-dependent attachment of cells to osteopontin mediated by the αVβ3 integrin.
Following incubation the wells were aspirated and washed once with D-PBS; plates can either be used immediately or stored for up to 1 week at 4° C. Prior to assay, the wells were blocked with 1% bovine serum albumin (BSA) in cell suspension media for 1 hour at 37° C. Following the blocking period, wells were aspirated and washed once with D-PBS.
αVβ3-expressing cell lines are maintained by standard tissue culture techniques. […] The cells were pelleted by low-speed centrifugation and washed three times with 0.5 mg/mL trypsin inhibitor in D-PBS (Sigma). The final cell pellet was resuspended in cell suspension media at a concentration of 10^6 cells/mL.
Incubation: 100 μL of diluted test compound was added to osteopontin-coated wells (in triplicate) followed by 100 μL of cell suspension; background cell attachment was determined in uncoated wells. The plate was incubated at 25° C. in a humidified air atmosphere for 1.5 hours. Following the incubation period, the wells were gently aspirated and washed once with D-PBS.
Cell Number Detection: The number of cells attached was determined by an MTT dye conversion assay (Promega) according to the manufacturer's instructions. Briefly, MTT dye was diluted in cell suspension media (15:85) and 100 μL was added to each well. […] The assay plates were covered and incubated at 37° C. in a humidified air atmosphere overnight.
The individual well optical density was expressed as a percentage of the maximal attachment (% Max) wells minus background attachment, and reported as the mean ±standard deviation.

[4] = molecular target: T3, Vitronectin Receptor (αVβ3) (Homo sapiens, UniProt P05106+P06756); experiment: Vitronectin Receptor (αVβ3) Binding Test Procedure; conditions: for IC50: read-out: (αVβ3) IC50 RECEPTOR BINDING
T3 construct: expressed in transfected cells; host or cells: 512P5 cells (plasma membrane preparation)
T3 sequence (P06756 31-889 limits assumed): as the sequence (P06756 31-889 limits assumed) above
T3 sequence (P06756 891-1048 partner limits assumed): as the sequence (P06756 891-1048 partner limits assumed) above
T3 sequence (P05106 27-788): as the sequence (P05106 27-788) above

[5] = @200 μM, percent of maximal aggregation
[6] = @ 30 μM, % Max = percentage of the specific binding, read-out: (αVβ3) RECEPTOR BINDING, % @ concentration
[7] = @ 100 μM, % of maximal attachment, read-out: (αVβ3) CELL ATTACHMENT, % @ concentration

NCCOc1ccc2c(c1)NC(=O)C(CC(=O)O)C2 (stereo not drawn) [Example 204, [7-(2-Amino-ethoxy)-2-oxo-1,2,3,4-tetrahydro-quinolin-3-yl]-acetic Acid]
melting point: 205 to 208 °C

N=C(N)NCCCOc1ccc2cc(CC(=O)O)c(=O)n(Cc3ccccc3)c2c1 [Example 155, [1-Benzyl-7-(3-guanidino-propoxy)-2-oxo-1,2-dihydro-quinolin-3-yl]-acetic Acid]
melting point: 132 to 134 °C | remaining activity at 200 µM [1, 5]: 83.7%

N=C(N)NCCCOc1ccc2c(c1)CC(CC(=O)O)CC2.O=C(O)C(F)(F)F (stereo not drawn) [Example 40, [7-(3-Guanidino-propoxy)-1,2,3,4-tetrahydro-napthalen-2-yl]-acetic Acid Trifluoroacetate]
BONE PITTING INHIBITION ([2]; @ 238 μM): 39%@238 | IC50 [3]: 47 µM | (αVβ3) RECEPTOR BINDING, % @ concentration [4]: 130% @30 | IC50 [1]: 148 µM

N=C(N)NCCCCNC(=O)c1ccc2c(c1)NC(=O)C(CC(=O)O)C2 (stereo not drawn) [Example 202, [7-(4-Guanidino-butylcarbamoyl)-2-oxo-1,2,3,4-tetrahydro-quinolin-3-yl]-acetic Acid Hydrochloride]
inhibition at 240 µM ([2]; Rattus norvegicus, Osteoclast, @ 240 μM): 37% | IC50 [3]: 86 µM | remaining activity at 30 µM [4, 6]: 50% | IC50 [1]: 87 µM

N=C(N)NCCNC(=O)c1ccc2c(c1)NC(=O)C(CC(=O)O)C2 (stereo not drawn) [Example 200, [7-(2-Guanidino-ethylcarbamoyl)-2-oxo-1,2,3,4-tetrahydro-quinolin-3-yl]-acetic Acid Hydrochloride]
inhibition at 254 µM ([2]; Rattus norvegicus, Osteoclast, @ 254 μM): 20% | IC50 [3]: 145 µM | remaining activity at 100 µM ([4]; @ 100 μM, % Max = percentage of the specific binding, read-out: (αVβ3) RECEPTOR BINDING, % @ concentration): 31.4% | remaining activity at 200 µM [1, 5]: 94%

N=C(N)NCCCC#Cc1ccc2c(c1)NC(=O)C(CC(=O)O)C2 (stereo not drawn) [Example 101, [7-(5-Guanidino-pent-1-ynyl)-2-oxo-1,2,3,4-tetrahydro-quinolin-3-yl]-acetic Acid Trifluoroacetate]
inhibition at 221 µM ([2]; Rattus norvegicus, Osteoclast, @ 221 μM): 51% | IC50 [3]: 11.5 µM | IC50 [4]: 8.9 µM | IC50 [1]: 107 µM

N=C(N)NCCCCCOc1cccc2c1NC(=O)C(CC(=O)O)C2 (stereo not drawn) (as salt: salt) [Example 250, [8-(5-Guanidino-pentoxy)-2-oxo-1,2,3,4-tetrahydro-quinolin-3-yl]-acetic Acid]
melting point: 126 to 131 °C

N=C(N)NCCCCCOc1cccc2c1NC(=O)C(CC(=O)O)C2 (stereo not drawn) [Example 250, [8-(5-Guanidino-pentoxy)-2-oxo-1,2,3,4-tetrahydro-quinolin-3-yl]-acetic Acid]
inhibition at 215 µM ([2]; Rattus norvegicus, Osteoclast, @ 215 μM): -5% | remaining activity at 10 µM ([3]; @ 10 μM, % of maximal attachment, read-out: (αVβ3) CELL ATTACHMENT, % @ concentration): 90% | remaining activity at 100 µM [3, 7]: 89% | remaining activity at 30 µM [4, 6]: 102% | remaining activity at 200 µM [1, 5]: 69%

N=C(N)NCCOc1ccc2c(c1)CC(CCC(=O)O)C(=O)N2 (stereo not drawn) (as salt: salt) [Example 222, 3-[6-(2-Guanidino-ethoxy)-2-oxo-1,2,3,4-tetrahydro-quinolin-3-yl]-propionic Acid]
melting point: 119 to 122 °C

N=C(N)NCCCCOc1ccc2c(c1)CC(CC(=O)O)C(=O)N2 (stereo not drawn) [Example 229, [6-(4-Guanidino-butoxy)-2-oxo-1,2,3,4-tetrahydro-quinolin-3-yl]-acetic Acid]
inhibition at 214 µM ([2]; Rattus norvegicus, Osteoclast, @ 214 μM): 2% | remaining activity at 100 µM [3, 7]: 82% | remaining activity at 30 µM [4, 6]: 100% | IC50 [1]: 146 µM

NCCCOc1ccc2cc(CC(=O)O)c(=O)n(Cc3ccccc3)c2c1 (as salt: salt) [Example 136, [1-Benzyl-7-(3-amino-propoxy)-2-oxo-1,2-dihydro-quinolin-3-yl]-acetic Acid]
melting point: 126 to 128 °C

N=C(N)NCCCCOc1ccc2c(c1)CC(CC(=O)O)C(=O)N2 (stereo not drawn) (as salt: salt) [Example 229, [6-(4-Guanidino-butoxy)-2-oxo-1,2,3,4-tetrahydro-quinolin-3-yl]-acetic Acid]
melting point: 170 to 173 °C

N=C(N)NCCOc1ccc2c(c1)CCCC(CC(=O)O)C2 (stereo not drawn) [Example 61, [2-(2-Guanidino-ethoxy)-6,7,8,9-tetrahydro-5H-benzocyclohepten-6-yl]-acetic Acid Hydrochloride]
inhibition at 271 µM ([2]; Rattus norvegicus, Osteoclast, @ 271 μM): 32% | IC50 [3]: 62.2 µM | IC50 [4]: 1.7 µM | remaining activity at 200 µM [1, 5]: 85.3%

COC(=O)CC1CCc2cc(OCCCNC3=NCCCN3)ccc2C1 (stereo not drawn) [Example 215]
inhibition at 200 µM ([2]; Rattus norvegicus, Osteoclast, @ 200 μM): 90% | IC50 [3]: 37.4 µM | IC50 [4]: 2 µM | IC50 [1]: 151 µM

NCCCOc1ccc2c(c1)NC(=O)C(CC(=O)O)C2 (stereo not drawn) (as salt: salt) [Example 205, [7-(3-Amino-propoxy)-2-oxo-1,2,3,4-tetrahydro-quinolin-3-yl]-acetic Acid]
melting point: 194 to 196 °C

N=C(N)NCCCOc1ccc2c(c1)CC(CC(=O)O)C(=O)N2 (stereo not drawn) [Example 228, [6-(3-Guanidino-propoxy)-2-oxo-1,2,3 4-tetrahydro-quinolin-3-yl]-acetic Acid]
BONE PITTING INHIBITION ([2]; @ 230 μM): 7%@ 230 | (αVβ3) CELL ATTACHMENT, % @ concentration ([3]; @ 100 μM, % of maximal attachment): 88%@ 100 | (αVβ3) RECEPTOR BINDING, % @ concentration ([4]; @ 30 μM, % Max = percentage of the specific binding): 57%@ 30 | Percent of Maximal [1, 5]: 83.7@200%

O=C(O)CC1CCc2cc(OCCCNC3=NCCCN3)ccc2C1 (stereo not drawn) [Example 214, {6-[3-(1,4,5,6-Tetrahydro-pyrimidin-2-ylamino)-propoxy]-1,2,3,4-tetrahydro-naphthalen-2-yl}-acetic Acid]
inhibition at 19 µM ([2]; Rattus norvegicus, Osteoclast, @ 19 μM): 19% | IC50 [3]: 0.479 µM | IC50 [4]: 0.42 µM | remaining activity at 200 µM [1, 5]: 58%

N=C(N)NCCCOc1ccc2cc(CC(=O)O)c(=O)[nH]c2c1.O=C(O)C(F)(F)F [Example 186, [7-(3-Guanidino-propoxy)-2-oxo-1,2-dihydro-quinolin-3-yl]-acetic Acid Trifluoroacetate]
melting point: 195 to 198 °C | remaining activity at 20 µM ([3]; @ 20 μM, % of maximal attachment, read-out: (αVβ3) CELL ATTACHMENT, % @ concentration): 113% | remaining activity at 100 µM [3, 7]: 68.9%

CCn1c(=O)c(CC(=O)O)cc2ccc(OCCCN)cc21.O=C(O)C(F)(F)F
melting point: 182 to 184 °C

N=C(N)NCCOc1ccc2cc(CC(=O)O)c(=O)[nH]c2c1 (as salt: trifluoroacetate) [Example 185, [7-(2-Guanidino-ethoxy)-2-oxo-1,2-dihydro-quinolin-3-yl]-acetic Acid]
melting point: 219 to 220 °C
